Data: patent US20110183980A1, “O-BENZYL NICOTINAMIDE ANALOGS AS MGLUR5 POSITIVE ALLOSTERIC MODULATORS” (priority 2009, published 2011)
Read-outs that look alike come from different tables or passages of the source.

Molecular target: T1, rat mGluR5 (Rattus norvegicus, UniProt P31424)
T1 construct: expressed in transfected cells; host or cells: human embryonic kidney (HEK) cells
Experiment: Potentiation of glutamate response, Ca2+ fluorescence (FDSS) in HEK cells transfected with rat mGluR5
Type: cell-based
Conditions: for EC50: read-out: EC50
Description: Human embryonic kidney (HEK) cells transfected with rat mGluR5 were plated in clear bottom assay plates for assay in a Functional Drug Screening System (FDSS). The cells were loaded with a Ca^2+-sensitive fluorescent dye (e.g., Fluo-4), and the plates were washed and placed in the FDSS instrument. After establishment of a fluorescence baseline for twelve seconds, the compounds of the present invention were added to the cells, and the response in cells was measured. Five minutes later, an mGluR5 agonist (e.g., glutamate, 3,5-dihydroxyphenylglycine, or quisqualate) was added to the cells, and the response of the cells was measured. Potentiation of the agonist response of mGluR5 by the compounds in the present invention was observed as an increase in response to non-maximal concentrations of agonist (here, glutamate) in the presence of compound compared to the response to agonist in the absence of compound.
The above described assay operated in two modes. In the first mode, a range of concentrations of the present compounds were added to cells, followed by a single fixed concentration of agonist. If a compound acted as a potentiator, an EC50 value for potentiation and a maximum extent of potentiation by the compound at this concentration of agonist was determined by non-linear curve fitting. In the second mode, several fixed concentrations of the present compounds were added to various wells on a plate, followed by a range of concentrations of agonist for each concentration of present compound; the EC50 values for the agonist at each concentration of compound were determined by non-linear curve fitting. A decrease in the EC50 value of the agonist with increasing concentrations of the present compounds (a leftward shift of the agonist concentration-response curve) is an indication of the degree of mGluR5 potentiation at a given concentration of the present compound. An increase in the EC50 value of the agonist with increasing concentrations of the present compounds (a rightward shift of the agonist concentration-response curve) is an indication of the degree of mGluR5 antagonism at a given concentration of the present compound. The second mode also indicates whether the present compounds also affect the maximum response to mGluR5 to agonists.

[1] = Table 1, potentiation of mGluR5 response to glutamate
[2] = Table 2, potentiation of mGluR5 response to glutamate

T1 sequence (P31424 21-1203): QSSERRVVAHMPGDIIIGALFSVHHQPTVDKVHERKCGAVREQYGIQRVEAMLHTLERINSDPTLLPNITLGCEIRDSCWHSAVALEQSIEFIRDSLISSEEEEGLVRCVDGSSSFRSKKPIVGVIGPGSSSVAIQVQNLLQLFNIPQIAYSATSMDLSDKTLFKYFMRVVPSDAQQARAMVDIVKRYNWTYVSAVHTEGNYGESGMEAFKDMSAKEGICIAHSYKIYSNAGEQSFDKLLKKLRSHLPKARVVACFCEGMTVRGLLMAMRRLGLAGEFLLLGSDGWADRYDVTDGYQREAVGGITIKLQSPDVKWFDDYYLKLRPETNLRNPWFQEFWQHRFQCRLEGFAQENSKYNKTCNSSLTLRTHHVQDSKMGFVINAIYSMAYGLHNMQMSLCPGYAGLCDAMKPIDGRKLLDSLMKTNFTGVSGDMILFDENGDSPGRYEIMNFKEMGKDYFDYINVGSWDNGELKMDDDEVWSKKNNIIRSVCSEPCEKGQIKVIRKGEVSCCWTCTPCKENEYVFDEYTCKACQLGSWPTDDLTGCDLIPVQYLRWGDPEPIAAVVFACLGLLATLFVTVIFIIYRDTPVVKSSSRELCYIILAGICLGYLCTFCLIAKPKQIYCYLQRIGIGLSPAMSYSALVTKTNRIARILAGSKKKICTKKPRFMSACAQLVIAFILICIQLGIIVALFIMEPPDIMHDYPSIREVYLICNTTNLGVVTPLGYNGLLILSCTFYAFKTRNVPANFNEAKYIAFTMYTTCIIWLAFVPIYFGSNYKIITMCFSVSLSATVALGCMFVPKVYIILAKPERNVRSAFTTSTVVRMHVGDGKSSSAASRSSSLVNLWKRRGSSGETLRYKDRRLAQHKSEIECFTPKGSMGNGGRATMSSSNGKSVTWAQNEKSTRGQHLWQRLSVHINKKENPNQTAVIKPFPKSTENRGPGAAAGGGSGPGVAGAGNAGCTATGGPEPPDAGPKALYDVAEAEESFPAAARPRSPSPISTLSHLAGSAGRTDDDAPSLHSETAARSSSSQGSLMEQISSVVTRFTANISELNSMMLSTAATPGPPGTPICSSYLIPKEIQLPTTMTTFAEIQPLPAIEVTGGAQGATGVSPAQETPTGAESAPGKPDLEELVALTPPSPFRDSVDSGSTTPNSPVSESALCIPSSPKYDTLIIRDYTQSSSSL

SMILES: O=C(Nc1ccccn1)c1ccc(OCc2ccccc2)nc1 [Example 1.2a.4]
- EC50 [1]: 410 nM

SMILES: O=C(NCc1ccccn1)c1ccc(OCc2ccccc2)nc1 [Example 1.2a.12]
- EC50 [1]: 3400 nM

SMILES: CC(NC(=O)c1ccc(OCc2cccc(F)c2)nc1)C(C)(C)CO (stereo not shown)
- EC50 [2]: 1000 nM

SMILES: O=C(NC1CCCCC1)c1ccc(OCc2cccc(F)c2)nc1 [Example 1.2c.6]
- EC50 [1]: 40 nM

SMILES: CC1CCCCC1NC(=O)c1ccc(OCc2ccccc2)nc1 (stereo not shown)
- EC50 [2]: 36 nM

SMILES: O=C(NC1CCCCC1)c1ccc(OCc2nccs2)nc1 [Example 2.3a.9]
- EC50 [1]: 3100 nM

SMILES: CC(C)(C)CCNC(=O)c1ccc(OCc2ccncc2)nc1 [Example 2.3c.2]
- EC50 [1]: 420 nM

SMILES: O=C(Nc1ccccc1)c1ccc(OCc2ccccc2)nc1 [Example 1.2a.14]
- EC50 [1]: 380 nM

SMILES: COC[C@@H](NC(=O)c1ccc(OCc2cccc(F)c2)nc1)C(C)(C)C
- EC50 [2]: 1900 nM

SMILES: C[C@@H](NC(=O)c1cnc(OCc2ccncc2)c(Br)c1)C1CCCCC1
- EC50 [2]: 3600 nM

SMILES: Cc1cccc(COc2ccc(C(=O)NC3CCC3)cn2)c1 [Example 1.2g.2]
- EC50 [1]: 120 nM

SMILES: CC(NC(=O)c1ccc(OCc2cccc(F)c2)nc1)C(C)(C)O (stereo not shown)
- EC50 [2]: 660 nM

SMILES: O=C(NC1CCOCC1)c1ccc(OCc2ccccc2)nc1 [Example 1.2a.23]
- EC50 [1]: 3900 nM

SMILES: C[C@H](NC(=O)c1ccc(OCc2cccc(F)c2)nc1Cl)C(C)(C)C
- EC50 [2]: > 10000 nM

SMILES: O=C(Nc1ccc(F)cn1)c1ccc(OCc2ccccc2)nc1 [Example 1.2a.11]
- EC50 [1]: 280 nM

SMILES: O=C(Nc1ccc(Cl)cn1)c1ccc(OCc2cccc(F)c2)nc1 [Example 1.2c.13]
- EC50 [1]: 346 nM

SMILES: CCCCOc1ccc(C(=O)NC2CCCCCC2)cn1 [Example 1.2j.7]
- EC50 [1]: 2200 nM

SMILES: O=C(N[C@@H](C1CC1)C(F)(F)F)c1ccc(OCc2cccc(F)c2)nc1
- EC50 [2]: 100 nM

SMILES: Cc1cc(C(=O)NCCC(C)(C)C)cnc1OCc1cccc(F)c1
- EC50 [2]: 1300 nM

SMILES: CCCCOc1ccc(C(=O)N[C@H](C)C2CCCCC2)cn1 [Example 1.2j.6]
- EC50 [1]: 1500 nM

SMILES: COc1ccccc1COc1ccc(C(=O)N[C@H](C)C(C)(C)C)cn1
- EC50 [2]: > 10000 nM

SMILES: Cc1cc(C(=O)NCCC(C)(C)C)cnc1OCc1ccncc1
- EC50 [2]: 5300 nM

SMILES: O=C(Nc1ccc(Cl)cc1F)c1ccc(OCc2cccc(F)c2)nc1 [Example 1.2c.12]
- EC50 [1]: 570 nM

SMILES: Cc1cc(C(=O)N[C@H](C)C2CCCCC2)cnc1OCc1cccc(F)c1
- EC50 [2]: 490 nM

SMILES: O=C(NC1CCCCC1)c1ccc(OCc2ccsc2)nc1 [Example 2.3a.8]
- EC50 [1]: 120 nM

SMILES: O=C(Nc1ccc(F)cc1)c1ccc(OCc2cccc(F)c2)nc1 [Example 1.2c.11]
- EC50 [1]: 260 nM

SMILES: O=C(NC(c1ccccn1)C(F)(F)F)c1ccc(OCc2cccc(F)c2)nc1 (stereo not shown)
- EC50 [2]: > 10000 nM

SMILES: C[C@@H](NC(=O)c1ccc(OCc2cccc(F)c2)nc1)C(C)(C)C
- EC50 [2]: 2.2 nM

SMILES: Cc1nc(OCc2ccncc2)ccc1C(=O)N[C@H](C)C1CCCCC1 [Example 1.2n.2]
- EC50 [1]: 800 nM

SMILES: CC(C)(C)CC(C)(C)NC(=O)c1ccc(OCc2cccc(F)c2)nc1
- EC50 [2]: 1100 nM

SMILES: Cc1nc(OCc2ccccc2)ccc1C(=O)NCC1CC1 [Example 1.2b.2]
- EC50 [1]: 1600 nM

SMILES: O=C(Nc1ccc(F)cc1F)c1ccc(OCc2cccc(F)c2)nc1 [Example 1.2c.21]
- EC50 [1]: 76 nM

SMILES: COc1cc(C(=O)NCCC(C)(C)C)cnc1OCc1cccc(F)c1
- EC50 [2]: 1900 nM

SMILES: O=C(NC1CCCCC1)c1ccc(OCc2ccccc2)nc1 [Example 1.2a.24]
- EC50 [1]: 140 nM

SMILES: O=C(NC1CCC1)c1ccc(OCc2ccc(F)cc2)nc1 [Example 2.3b.2]
- EC50 [1]: 1200 nM

SMILES: O=C(NC1CCC1)c1ccc(OCc2ccccc2F)nc1 [Example 1.2f.2]
- EC50 [1]: 270 nM

SMILES: C[C@H](CN1CCC(C(F)(F)F)CC1)NC(=O)c1ccc(OCc2cccc(F)c2)nc1
- EC50 [2]: > 10000 nM

SMILES: CC(C)(C)CCNC(=O)c1cnc(OCc2cccc(F)c2)c(C#N)c1
- EC50 [2]: 3900 nM

SMILES: C[C@@H](NC(=O)c1ccc(OCc2ccccc2)nc1)C1CCCCC1 [Example 1.2a.2, (R)-6-(Benzyloxy)-N-(1-cyclohexylethyl)nicotinamide]
- Glu max (mGluR5 expressing cell line): 91%
- EC50 (mGluR5 expressing cell line, potentiation): 40 nM

SMILES: CC(C)(C)CCNC(=O)c1ccc(OCc2ccccc2)nc1 [Example 1.2a.8]
- EC50 [1]: 92 nM

SMILES: O=C(NCC1CCC1)c1ccc(OCc2ccccc2)nc1
- EC50 [2]: 130 nM

SMILES: COc1ccc(COc2ccc(C(=O)N[C@H](C)C(C)(C)C)cn2)cc1F
- EC50 [2]: 4600 nM

SMILES: COc1ccc(COc2ccc(C(=O)N[C@H](C)C(C)(C)C)cn2)cc1
- EC50 [2]: 5400 nM

SMILES: Cc1ccc(COc2ccc(C(=O)NC3CCC3)cn2)cc1 [Example 2.3b.1]
- EC50 [1]: 1800 nM

SMILES: CC(COC(C)(C)C)NC(=O)c1ccc(OCc2cccc(F)c2)nc1 (stereo not shown)
- EC50 [2]: 4200 nM

SMILES: O=C(Nc1ccccc1O)c1ccc(OCc2ccccc2)nc1
- EC50 [2]: 520 nM

SMILES: O=C(NC1CCCCC1)c1ccc(OCc2ccncc2)nc1 [Example 1.2i.3]
- EC50 [1]: 1200 nM

SMILES: O=C(NC1CCCCC1)c1ccc(OCC2CCCC2)nc1 [Example 2.3a.4]
- EC50 [1]: 710 nM

SMILES: O=C(NC1CCCCC1)c1ccc(OCc2ccc(F)cc2)nc1 [Example 2.3a.6]
- EC50 [1]: 750 nM

SMILES: CC(C)(C)CCNC(=O)c1ccc(OCc2ccc(F)cc2)nc1 [Example 1.2d.4]
- EC50 [1]: 690 nM

SMILES: C[C@@H](NC(=O)c1ccc(OCc2cccc(F)c2)nc1)C(C)(C)O
- EC50 [2]: 150 nM

SMILES: COc1nc(OCc2cccc(F)c2)ccc1C(=O)N[C@H](C)C1CCCCC1
- EC50 [2]: > 10000 nM

SMILES: CC(C)(C)CCNC(=O)c1cnc(OCc2ccncc2)c(Br)c1
- EC50 [2]: 3900 nM

SMILES: Cc1nc(OCc2cccc(F)c2)ccc1C(=O)NC1CCCCC1 [Example 1.2m.3]
- EC50 [1]: 610 nM

SMILES: CC(C)(C)NC(=O)c1ccc(OCc2ccccc2)nc1 [Example 1.2a.6]
- EC50 [1]: 230 nM

SMILES: C[C@@H](NC(=O)c1cnc(OCc2cccc(F)c2)c(C(F)(F)F)c1)C1CCCCC1
- EC50 [2]: > 10000 nM

SMILES: CCCCOc1ccc(C(=O)Nc2ccccc2)cn1 [Example 1.2j.5]
- EC50 [1]: 650 nM

SMILES: O=C(N[C@H]1CCCC[C@@H]1O)c1ccc(OCc2ccccc2)nc1
- EC50 [2]: 2800 nM

SMILES: C[C@@H](NC(=O)c1cnc(OCc2ccncc2)c(C(F)(F)F)c1)C1CCCCC1
- EC50 [2]: > 10000 nM

SMILES: C[C@@H](NC(=O)c1cnc(OCc2ccncc2)c(C#N)c1)C1CCCCC1
- EC50 [2]: 1900 nM

SMILES: C[C@@H](NC(=O)c1ccc(OCc2cccc(F)c2)nc1Cl)C(C)(C)C
- EC50 [2]: 370 nM

SMILES: CC1(CCNC(=O)c2ccc(OCc3cccc(F)c3)nc2)COC1
- EC50 [2]: > 10000 nM

SMILES: Cc1cc(OCc2ccncc2)ncc1C(=O)N[C@H](C)C1CCCCC1
- EC50 [2]: 610 nM

SMILES: Cc1cccc(COc2ccc(C(=O)NC3CCCCC3)cn2)c1 [Example 1.2g.3]
- EC50 [1]: 100 nM

SMILES: CC(C)[C@@H](C)NC(=O)c1ccc(OCc2cccc(F)c2)nc1
- EC50 [2]: 21 nM

SMILES: O=C(NC12CC3CC(CC(C3)C1)C2)c1ccc(OCc2ccccc2)nc1
- EC50 [2]: 180 nM

SMILES: O=C(NC(C1CC1)C1CC1)c1ccc(OCc2cccc(F)c2)nc1
- EC50 [2]: 300 nM

SMILES: O=C(NC1CCCCC1)c1ccc(OCc2ccccc2F)nc1 [Example 1.2f.3]
- EC50 [1]: 110 nM

SMILES: Cc1csc(NC(=O)c2ccc(OCc3ccccc3)nc2)n1 [Example 1.2a.20]
- EC50 [1]: 1600 nM

SMILES: C[C@@H](NC(=O)c1ccc(OCc2cccc(F)c2)nc1)C1CCOCC1
- EC50 [2]: 310 nM

SMILES: C[C@@H](NC(=O)c1ccc(OCc2ccncc2)nc1)C(C)(C)C
- EC50 [2]: 570 nM

SMILES: C[C@H](CN1CCC(F)(F)C1)NC(=O)c1ccc(OCc2cccc(F)c2)nc1
- EC50 [2]: > 10000 nM

SMILES: Cc1cc(C(=O)Nc2ccc(F)cc2F)cnc1OCc1ccncc1
- EC50 [2]: 680 nM

SMILES: COc1cc(F)cc(COc2ccc(C(=O)N[C@H](C)C(C)(C)C)cn2)c1
- EC50 [2]: 5100 nM

SMILES: O=C(Nc1ccccn1)c1ccc(OCc2ccccc2F)nc1 [Example 1.2f.1]
- EC50 [1]: 300 nM

SMILES: C[C@@H](NC(=O)c1ccc(OCc2cccc(F)c2)[nH]c1=O)C(C)(C)C
- EC50 [2]: > 10000 nM

SMILES: O=C(Nc1ccccn1)c1ccc(OCc2ccc(F)cc2)nc1 [Example 1.2d.1]
- EC50 [1]: 1300 nM

SMILES: O=C(Nc1ccc(F)cc1F)c1ccc(OCc2ccc(F)cc2)nc1 [Example 1.2d.2]
- EC50 [1]: 210 nM

SMILES: O=C(Nc1ccc(F)cc1F)c1ccc(OCc2ccncc2)nc1 [Example 1.2i.4]
- EC50 [1]: 810 nM

SMILES: COc1ccccc1NC(=O)c1ccc(OCc2ccccc2)nc1
- EC50 [2]: 3400 nM

SMILES: C[C@H](NC(=O)c1ccc(OCc2cccc(F)c2)nc1)C(C)(C)O
- EC50 [2]: 610 nM

SMILES: C[C@@H](NC(=O)c1ccc(OCc2cccc(F)c2)nc1)C1CCC1
- EC50 [2]: 6.6 nM

SMILES: COc1cccc(COc2ccc(C(=O)N[C@H](C)C(C)(C)C)cn2)c1
- EC50 [2]: 120 nM

SMILES: C[C@@H](NC(=O)c1cnc(OCc2cccc(F)c2)cc1C(F)(F)F)C(C)(C)C
- EC50 [2]: 1200 nM

SMILES: COc1ccc(F)cc1COc1ccc(C(=O)N[C@H](C)C(C)(C)C)cn1
- EC50 [2]: 3500 nM

SMILES: C[C@@H](NC(=O)c1ccc(OCc2cccc(F)c2)nc1)C1CC1 [Example 1.2c.15]
- EC50 [1]: 94 nM

SMILES: C[C@@H](NC(=O)c1ccc(OCc2cccc(F)c2)nc1)C1CCCCC1 [Example 1.2c.18]
- EC50 [1]: 190 nM
